In PubChem BioAssay (NCI):
Where “and” joins values, the source holds several entries; their conditions need not be identical. Equal values may be shown once.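 Compound exposure: 48 hours, 5 concentrations, 96-well plates. Abbreviation: GI50, concentration required for 50% inhibition of growth. Definition used: TGI = concentration required for complete inhibition of growth.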

Assays:
Test in all cases: DTP human tumour cell line panel, 48 h
NCI-H23 lung = system: NCI-H23 lung
HT29 colon = system: HT29 colon
SK-OV-3 ovarian = system: SK-OV-3 ovarian
OVCAR-4 ovarian = system: OVCAR-4 ovarian
DU-145 prostate = system: DU-145 prostate
HOP-62 NSCLC = system: HOP-62 NSCLC
NCI-H460 lung = system: NCI-H460 lung
CAKI-1 renal = system: CAKI-1 renal
SF-539 CNS = system: SF-539 CNS
SK-MEL-2 melanoma = system: SK-MEL-2 melanoma

SMILES | GI50 (NCI-H23 lung) | TGI (NCI-H23 lung) | GI50 (HT29 colon) | TGI (HT29 colon) | GI50 (SK-OV-3 ovarian) | TGI (SK-OV-3 ovarian) | GI50 (OVCAR-4 ovarian) | TGI (OVCAR-4 ovarian) | GI50 (DU-145 prostate) | TGI (DU-145 prostate) | GI50 (HOP-62 NSCLC) | TGI (HOP-62 NSCLC) | GI50 (NCI-H460 lung) | TGI (NCI-H460 lung) | GI50 (CAKI-1 renal) | TGI (CAKI-1 renal) | GI50 (SF-539 CNS) | TGI (SF-539 CNS) | GI50 (SK-MEL-2 melanoma) | TGI (SK-MEL-2 melanoma)
O=C1c2cccc3cccc(c23)C(=O)N1CCCCCN1CCN(CCCCCOc2ccc(-c3nc4ccc(N5CCOCC5)cc4[nH]3)cc2)CC1 | 21.2 µM | 46.6 µM | 5.99 µM | 23.8 µM | > 100 µM | > 100 µM | 7.04 µM | 28.3 µM | 14.7 µM | 27.8 µM | 35.7 µM | 79.2 µM | 16.8 µM | 30.8 µM | > 45.6 µM | > 70.6 µM | 10.6 µM | 29 µM | 10.7 µM | 32.8 µM
COc1ccc(-c2nsc3c2NC(=O)CC3c2cccc(OC)c2)cc1 (stereo not given) | 2.59 µM | > 100 µM | 0.427 µM | > 100 µM | 1.45 µM | 7.43 µM | 7.4 µM | > 100 µM | 2.59 µM | 19.1 µM | 2.41 µM | 33.9 µM | 0.534 µM | 71.8 µM | 1.38 µM | > 100 µM | 1.87 µM | 6.7 µM | 3.81 µM | 64.1 µM
Cc1cc2cc3c(=O)[nH]c(=O)[nH]c3nc2cc1C | – | > 100 µM | – | > 100 µM | – | > 100 µM | – | > 100 µM | – | > 100 µM | – | > 100 µM | – | > 100 µM | – | > 100 µM | – | > 100 µM | – | > 100 µM
CC1(C)N=C(N)N=C(N)N1c1ccc(CCCCc2ccc(Cl)c(S(=O)(=O)F)c2)c(Cl)c1 | 0.843 µM | 19 µM | 0.264 µM | 15.7 µM | 6.79 µM | 22.2 µM | 4.51 µM | 49.7 µM | 0.769 µM | 16.5 µM | 5.82 µM | > 43.7 µM | 0.315 µM | 16.5 µM | 1.82 µM | 10.5 µM | 0.542 µM | 13 µM | 2.45 µM | > 33.6 µM
Cn1c(=O)c(Oc2ccc(F)cc2)cc2cnc(NC3CCOCC3)nc21 | > 25 µM | > 25 µM | > 25 µM | > 25 µM | > 25 µM | > 25 µM | > 25 µM | > 25 µM | > 25 µM | > 25 µM | > 25 µM | > 25 µM | > 25 µM | > 25 µM | > 25 µM | > 25 µM | > 25 µM | > 25 µM | > 25 µM | > 25 µM
CC1(Br)Cc2ccccc2C1=O (stereo not given) | 1.88 µM | 5.38 µM | – | 15.4 µM | – | 65.9 µM | 2.14 µM | 8.43 µM | – | 33.6 µM | – | 29.1 µM | > 100 µM | > 100 µM | 1.75 µM | 3.86 µM | – | 16.8 µM | – | 24.2 µM
O=C(NNc1ccccc1)C(=O)NNc1ccccc1 | > 100 µM | > 100 µM | > 100 µM | > 100 µM | > 100 µM | > 100 µM | 1.83 µM | > 100 µM | 20.8 µM | > 100 µM | > 100 µM | > 100 µM | 3.47 µM | > 100 µM | 0.795 µM | > 100 µM | 2.63 µM | 14.5 µM | 2.63 µM | > 100 µM
CC1CCN(C(=O)OCc2nc3nc(Cl)nc(N4CCOCC4)c3[nH]2)CC1 | 1.58 µM | 3.65 µM | 0.831 µM | 6.38 µM | 7.35 µM | 21 µM | 1.35 µM | 2.72 µM | 1.14 µM | 2.35 µM | 1.76 µM | 5 µM | 1.38 µM | 2.99 µM | 0.72 µM | 2.27 µM | 1.11 µM | 2.32 µM | 1.86 µM | 3.77 µM
CSc1nc(NC2OC(COC(C)=O)C(OC(C)=O)C(OC(C)=O)C2OC(C)=O)c(N=CC=Nc2c(NC3OC(COC(C)=O)C(OC(C)=O)C(OC(C)=O)C3OC(C)=O)nc(SC)n(C)c2=O)c(=O)n1C (stereo not given) | > 50 µM | > 100 µM | > 50 µM | > 100 µM | > 50 µM | > 50 µM and 80.1 µM | > 50 µM | > 100 µM | > 50 µM | > 100 µM | 21.2 µM | 50 µM and 29.8 µM | > 50 µM | > 100 µM | > 50 µM | > 100 µM | – | 50 µM and 69.3 µM | 25.2 µM | 50 µM and > 96 µM
O=C1CCC/C=C\C[C@H]2C=CC(=O)/C2=C/C[C@H](C/C=C\CC(F)(F)F)O1 | 0.698 µM | 3.67 µM | 0.352 µM | 0.696 µM | 0.757 µM | 3.02 µM | 0.571 µM | 2.5 µM | 0.607 µM | 2.33 µM | 0.333 µM | 0.757 µM | 0.508 µM | 1.73 µM | 0.417 µM | 1.28 µM | 0.676 µM | 3.08 µM | 0.365 µM | 1.19 µM
C=CCc1ccc(O)c(-c2ccc(O)c(CC=C)c2)c1 | 16.3 µM | 34.4 µM | 23.3 µM | 53.8 µM | 22.1 µM | 50.1 µM | 15.5 µM | 35.8 µM | 15.8 µM | 30.9 µM | 20 µM | 39.8 µM | 14.1 µM | 35.3 µM | 14.1 µM | 29.4 µM | 16.6 µM | 31.8 µM | 14.5 µM | 33 µM
CN(C)C/C=C/C(=O)Nc1cc2c(Nc3ccc(F)c(Cl)c3)ncnc2cc1O[C@H]1CCOC1 | 1.96 µM and 2.49 µM | 8.66 µM and > 10 µM | 0.815 µM and 0.756 µM | 3.49 µM and > 10 µM | < 0.01 µM and 0.00185 µM | 0.322 µM and 0.327 µM | 0.915 µM and 1.27 µM | 12.3 µM and > 10 µM | 0.884 µM and 0.244 µM | 12.7 µM and > 10 µM | 2.49 µM and 3.38 µM | 6.86 µM and > 10 µM | 2.87 µM and 3.46 µM | 11.7 µM and > 10 µM | 0.0407 µM and 0.208 µM | 8.39 µM and > 10 µM | 1.5 µM and 2.59 µM | 4.68 µM and 9.71 µM | 1.38 µM and 1.51 µM | 2.93 µM and 4.13 µM
Nc1ccn(C2OC(CO)C(O)C2O)c(=O)n1 (stereo not given) | – | – | 2.01 µM | > 500 µM | 2.7 µM | > 500 µM | – | > 500 µM | 0.536 µM | – | 0.237 µM | – | 0.114 µM and 0.231 µM and 0.12 µM | > 100 µM and 418 µM | 0.107 µM | – | 16.8 µM | – | – | > 500 µM
